The results in this text go back to patent US7629317B2, “Control of growth and repair of gastro-intestinal tissues by gastrokines and inhibitors” (The University of Chicago, priority 2001, dated 2009).

One assay has as its system Caco2/bbe (C2) cells. As to the kind of experiment: Transepithelial electrical resistance (TER) of Caco2/bbe (C2) cell monolayers after injury. Type of assay: cell-based, human. As to the method:
Panel A: When a stable TER was reached (330 Ω·cm^2) in MDCK cell monolayers the medium was changed to DMEM containing FBS (0.2%), and either peptide 77-97 (8 μg/ml) or EGF (50 ng/ml). After 18 hr, peptide 77-97 or EGF were added to the specified wells. One hour later monochloramine (0.1 mM), like the other agents, was added to the apical and basal compartments of the Transwell. […] Panels B, C: Caco2/bbe (C2) subclone monolayers were grown on collagen-coated polycarbonate filters until a stable TER was reached (225 Ω·cm^2). Spent medium was replaced with fresh medium containing FBS (0.1%) alone or with peptide 77-97 (8 μg/ml). After 18 hr, monochloramine (0.3 mM, B) or indomethacin (0.1 mM, C) was added to both compartments of the Transwell. At time 0, cultures received either vehicle (control), vehicle plus oxidant or indomethacin, or peptide 77-97 and oxidant or indomethacin. TER of injured cultures treated with vehicle decreased by ˜35% at 90 min, whereas peptide-treated cultures declined ˜10%.
C2 cell monolayers were grown in DMEM containing FBS (5%) and transferrin (10 μg/ml) on collagen-coated polycarbonate filters until a stable TER was reached (225 Ωcm^2). At time 0, cells were exposed to no DSS (control), or DSS (4%) in the upper compartment of the Transwell. AMP peptide 77-97 (8 μg/ml) was added to the upper and lower compartments of the Transwell 1 day prior to the addition of DSS at time 0. TER of DSS-injured cultures treated with vehicle decreased by ˜70% at 45 min, whereas peptide-treated cultures declined ˜10% at that time. […] Values are means for ≧6 cultures.
Confluent C2 cell monolayers were prepared on Transwells until a stable TER was established. Medium was replaced with fresh medium containing FBS (0.1%) alone (control), or with either rhAMP-18 (100 nanomolar) or peptide 77-97 (3.7 micromolar). After 18 hr, monochloramine (0.3 mM) was added to both compartments of the Transwell, and cultures received either vehicle (control), vehicle plus oxidant, rhAMP-18 and oxidant, or peptide 77-97 and oxidant, after which TER was measured.
To determine whether AMP peptide could speed recovery of TER after DSS-induced colonic cell injury, a highly sought-after functional characteristic of an agent designed to treat IBD, C2 cell monolayers were exposed to DSS (5%) for 10 min which reduced TER to 33±6% of the control value (FIG. 29, left panel). DSS was removed by aspirating the medium and replacing it with fresh medium. AMP peptide 77-97 (8 μg/ml) or vehicle was added to the culture medium, and TER was measured 18 hr later. In the presence of the vehicle, TER increased from 33% to 66±7% of the control value, whereas cells exposed to AMP peptide reached a value 112±4% of control.
To determine if the cytoprotective effect of AMP peptide is mediated at the level of the actin cytoskeleton, C2 cell monolayers were exposed to cytochalasin D, an agent known to disrupt actin filaments and compromise barrier function (Madara et al., 1986).
(§1) To determine if AMP peptide could play a cytoprotective role in GDS, a study was carried out in C2 cell monolayers that were exposed to the PA-I lectin. […] Next the effect of AMP peptide was studied in the mouse model of P. aeruginosa-induced-GDS (Laughlin et al., 2000) using female Balb/c mice subjected to 30% hepatectomy, injection of a solution of living P. aeruginosa into the cecum, and food deprivation postoperatively. All 8 of the mice survived surgery.

The test system of another assay is WI-38 fibroblasts. Kind of assay: Growth of WI-38 fibroblasts (non-GI control). Type of assay: cell-based, human. As to conditions: peptide up to 8 μg/ml. As to the method:
To characterize the capacity of gastric and intestinal cells to respond to AMP-18, AGS gastric adenocarcinoma cells, HAE human gastric antrum mucosa primary cultures transformed with SV40 large T antigen, rat diploid small intestinal epithelial cells of the IEC-6 (FIG. 15) and IEC-18 lines, NCI N-87 gastric carcinoma cells, and SK-GT5 gastroesophageal adenocarcinoma cells were studied; human WI-38 fibroblasts and HeLa cells served as non-GI control cell lines. Mitogenesis was assayed by performing cell counts 3 to 4 days after exposing cells to the agent of interest, trypsinizing the culture to prepare single cells, and confirming this while counting them in a hemocytometer.

Assay [1] relates to mice with Pseudomonas aeruginosa-induced gut-derived sepsis. As to the kind of experiment: Pseudomonas aeruginosa-induced gut-derived sepsis in mice. The class given is in vivo, female Balb/c mice. The conditions noted are these: 15 mg/kg i.p for 4 days, s.c. for 1 day; all vehicle animals dead; listed as AMP peptide. As to the method:
as §1

A further assay relates to Helicobacter pylori. As to the kind of experiment: Growth inhibition on a bacterial lawn (filter diffusion). Type of assay: cell-based. The conditions noted are these: solution on filter. As to the method: To determine if AMP peptide inhibits growth of H. pylori, a lawn of bacteria was prepared on a culture dish. A small circular filter was placed in the center of the dish, a solution of a test agent was placed on the filter so it diffused onto the lawn, and its effect on bacterial growth around the filter was measured. AMP peptide 77-97 (SEQ ID NO: 12) (Table 1), a scrambled version of this AMP peptide (negative control) (SEQ ID NO: 19), or the antibiotic clarithromycin (positive control) was added to a filter on different cultures. […] In addition, AMP peptide could serve as a therapeutic agent to treat H. pylori infections in the stomach, and thereby prevent the capacity of this organism to cause gastritis, gastric ulcers, and gastric adenocarcinomas.

The next assay has as its system Aspergillus niger. As to the kind of experiment: Growth of other bacteria and fungi. The class given is cell-based.

“Also recorded” adds a separate entry of the source.

Turning to “LDALVKEKKLQGKGPGGPPPK [97–117, peptide 77-97 of the mature protein, same as 97-117 of the human precursor]”, the “TER after PA-I lectin (in words)” value in the assay on Caco2/bbe (C2) cells (4 hr) is “nearly unchanged”. Moreover, the “decline of TER after PA-I lectin” value with Caco2/bbe (C2) cells (4 hr, vehicle ~22%) was 0-5%. In addition, the “decline of TER of DSS-injured cultures” value with Caco2/bbe (C2) cells (DSS 4%, 45 min, peptide 8 μg/ml 1 day prior, vehicle ~70%) is listed as around 10%. Moreover, the “TER 18 hr after removal of DSS” value in the assay with Caco2/bbe (C2) cells (DSS 5% for 10 min, peptide 8 μg/ml, vehicle 66±7%) is given as 112±4 % of control. In the assay with Caco2/bbe (C2) cells (cytochalasin D 0.01 μg/ml, 2 hr, peptide 8 μg/ml 18 hr pretreatment, vehicle -34%, listed as AMP peptide), the “TER after cytochalasin D” value is recorded as “did not decline significantly; also recorded: prevented the decline”. The “decline of TER of injured cultures” value in the assay with Caco2/bbe (C2) cells (monochloramine 0.3 mM or indomethacin 0.1 mM, 90 min, peptide 8 μg/ml, vehicle ~35%) is on record as around 10%. The “decline in TER after monochloramine” value in the assay with Caco2/bbe (C2) cells (monochloramine 0.3 mM, 45 min, rhAMP-18 100 nanomolar or peptide 3.7 micromolar pre-treatment, oxidant alone ~35%) is reported as around 10%. Also, in the assay with Caco2/bbe (C2) cells (peptide 8 μg/ml), the “effect on TER of non-injured cells” value was “did not alter”. Besides, the “growth stimulation of WI-38 fibroblasts” value is “does not stimulate growth” in the assay on WI-38 fibroblasts and “failure” with WI-38 fibroblasts (listed as AMP peptide). The “survival one day after P. aeruginosa injection into the cecum” value in assay [1] is “alive and well”. Besides, the “growth of H. pylori lawn” value in the assay with Helicobacter pylori (listed as AMP peptide) was “inhibited growth”; in the assay with Helicobacter pylori (listed as AMP peptide 77-97) it was “inhibited”. Moreover, the “growth of Aspergillus niger” value in the assay on Aspergillus niger was “did not alter the growth”.
